Common to all, as to format: cell-based
In test [1] the test system is SARS-CoV-2 Delta variant. Put plainly: Viral load reduction assay in EPSC-derived eSTB cells (qRT-PCR of supernatant viral copies). The settings on record: for IC50: read-out: IC50 for Delta variant in eSTBs. (In general: In qPCR the cycle at which signal appears reflects the starting amount.)
For test [2], the system named is SARS-CoV-2 Omicron variant. The description is as above. The settings on record: for IC50: read-out: IC50 for Omicron variant in eSTBs.
Test [3] deals with SARS-CoV-2 Delta variant. Put plainly: Viral load reduction assay in naïve-eSTB cells. The settings on record: compared with EPSC-eSTBs.
The test system of test [4] is SARS-CoV-2 Omicron variant. Put plainly: Viral load reduction assay in naïve-eSTB cells. As to conditions: compared with EPSC-eSTBs.
Setting [5] is: Severe acute respiratory syndrome coronavirus 2, 48 h.

Read-outs that look alike come from different tables or passages of the source.

On to `CC(C)C[C@H](NC(=O)OCc1ccccc1)C(=O)N[C@@H](CC1CCNC1=O)C(O)S(=O)(=O)O` (some centres unmarked) [GC376], for which the IC50 amounted to 25.5 ± 3.2 nM in test [1] and 31.4 ± 4.1 nM in test [2].
With `CC(C)C[C@H](NC(=O)OCc1ccccc1)C(=O)N[C@@H](C[C@@H]1CCNC1=O)C(O)S(=O)(=O)[O-].[Na+]` (some centres unmarked) [GC376], in test [1] (EPSC-derived eSTB cells), the “Viral copy in the supernatant, Delta (FIG. 17B)” value is “dose-dependent inhibition”. Besides, the “Viral copy in the supernatant, Omicron (FIG. 17B)” value in test [2] (EPSC-derived eSTB cells) was “dose-dependent inhibition”. In test [3], the “IC50 against Delta variant in naïve-eSTBs” value is “similarly low”. The “IC50 against Omicron variant in naïve-eSTBs” value in test [4] is “similarly low”.
Regarding `CCC(CC)COC(=O)[C@H](C)N[P@](=O)(OC[C@H]1O[C@@](C#N)(c2ccc3c(N)ncnn23)[C@H](O)[C@@H]1O)Oc1ccccc1` [remdesivir], the IC50 in test [1] (setting [5]) was determined as 5.5 ± 1.2 nM; in test [2] (setting [5]), 4.1 ± 1.5 nM.

For the origin of these results see patent US20230393122A1 (priority 2022, published 2023).
